Eight compounds from patent publication US20250333394A1, “Tiparp Inhibitor Compounds” (AbbVie Inc., priority 2024, published 2025) can be followed below.

pEC50, pIC50: −log10 of the molar value. Where two headings read alike, the source gives them in different places.

For one experiment, the target named is TIPARP GST-(TEV) (Homo sapiens (Human), UniProt Q7Z3E1). As to the kind of experiment: TR-FRET binding assay, TIPARP. The settings on record: for pIC50: TR-FRET, Probe 1, 2 hours incubation; for PARP1/TIPARP IC50 Ratio: ratio of PARP1 GST IC50 to TIPARP GST-(TEV) IC50. Put shortly: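 N-terminal GST-TEV-tagged human TIPARP with protein/probe mix in 50 mM Tris-HCl pH 8.0, 5 mM MgCl2, 5 µM ZnCl2, 1 mM DTT, 0.15% BSA, 0.01% Triton X-100, plus 1 nM Tb-anti-GST antibody. Compounds at 30 µM to 0.5 nM final, 3-fold steps. TR-FRET ratio read after 2 h at ambient temperature.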
For orientation: In TR-FRET formats the signal depends on donor and acceptor labels being close together.

A further experiment concerns DLD-1 parent cells. As to the kind of experiment: CellTiter-Glo DLD-1 parent cell assay. It is filed as cell-based. The settings on record: 6 days, read-out: DLD-1 CTG EC50. In short, it runs like this: (§1)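 DLD-1 parent (500 cells/well) and DLD-1 BRCA2 (−/−) (1200 cells/well) cells in RPMI 1640 with 10% FBS exposed to compounds at 30 μM to 0.5 nM (3-fold dilutions) for 6 days at 37° C. Viability read by CellTiter-Glo luminescence on day 7.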
On the technique in general: ATP-based viability assays read luminescence as a measure of living cells.

Another experiment relates to NCI-H1373 cells. As to the kind of experiment: NCI-H1373 CellTiter-Glo cell assay for TIPARP inhibition. The class given is cell-based, human. To be noted: 6 days, 100 nM 10-Cl-BBQ in medium, read-out: NCI-H1373 CTG EC50. In short, it runs like this: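 NCI-H1373 cells (1000/well) grown in RPMI 1640 with 10% FBS and 100 nM 10-Cl-BBQ, exposed to compounds from 30 μM to 0.5 nM final in 3-fold steps for 6 days at 37° C. Cell number read on day 7 by CellTiter-Glo luminescence.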

For a further experiment, the target named is PARP1 GST (Homo sapiens (Human), UniProt P09874). The experiment in a line: TR-FRET binding assay, PARP1. To be noted: Probe 2, 2 hours incubation. In short, it runs like this: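 Serially diluted compounds, final 30 μM down to 0.5 nM, incubated 2 h at ambient temperature with GST-tagged protein/probe mix plus 1 nM Tb-anti-GST antibody. Buffer: 50 mM Tris-HCl pH 8.0, 5 mM MgCl2, 5 μM ZnCl2, 1 mM DTT, 0.15% BSA, 0.01% Triton X-100. Binding read as TR-FRET ratio.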

For the next experiment, the system named is DLD-1 BRCA2 (−/−) cells. As to the kind of experiment: CellTiter-Glo DLD-1 BRCA2 (−/−) cell assay for PARP1/2 inhibition. The settings on record: 6 days, read-out: DLD-1 BRCA2 (−/−) CTG EC50. The class given is cell-based. In short, it runs like this:
as §1

TIPARP GST-(TEV), sequence (Q7Z3E1 441-657): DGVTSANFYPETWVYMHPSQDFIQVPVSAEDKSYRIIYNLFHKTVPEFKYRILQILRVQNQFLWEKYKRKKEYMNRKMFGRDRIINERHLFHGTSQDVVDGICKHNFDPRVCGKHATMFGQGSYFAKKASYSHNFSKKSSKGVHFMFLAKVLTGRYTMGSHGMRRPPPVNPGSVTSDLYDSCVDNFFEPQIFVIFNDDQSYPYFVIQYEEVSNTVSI
PARP1 GST, sequence (P09874 whole entry): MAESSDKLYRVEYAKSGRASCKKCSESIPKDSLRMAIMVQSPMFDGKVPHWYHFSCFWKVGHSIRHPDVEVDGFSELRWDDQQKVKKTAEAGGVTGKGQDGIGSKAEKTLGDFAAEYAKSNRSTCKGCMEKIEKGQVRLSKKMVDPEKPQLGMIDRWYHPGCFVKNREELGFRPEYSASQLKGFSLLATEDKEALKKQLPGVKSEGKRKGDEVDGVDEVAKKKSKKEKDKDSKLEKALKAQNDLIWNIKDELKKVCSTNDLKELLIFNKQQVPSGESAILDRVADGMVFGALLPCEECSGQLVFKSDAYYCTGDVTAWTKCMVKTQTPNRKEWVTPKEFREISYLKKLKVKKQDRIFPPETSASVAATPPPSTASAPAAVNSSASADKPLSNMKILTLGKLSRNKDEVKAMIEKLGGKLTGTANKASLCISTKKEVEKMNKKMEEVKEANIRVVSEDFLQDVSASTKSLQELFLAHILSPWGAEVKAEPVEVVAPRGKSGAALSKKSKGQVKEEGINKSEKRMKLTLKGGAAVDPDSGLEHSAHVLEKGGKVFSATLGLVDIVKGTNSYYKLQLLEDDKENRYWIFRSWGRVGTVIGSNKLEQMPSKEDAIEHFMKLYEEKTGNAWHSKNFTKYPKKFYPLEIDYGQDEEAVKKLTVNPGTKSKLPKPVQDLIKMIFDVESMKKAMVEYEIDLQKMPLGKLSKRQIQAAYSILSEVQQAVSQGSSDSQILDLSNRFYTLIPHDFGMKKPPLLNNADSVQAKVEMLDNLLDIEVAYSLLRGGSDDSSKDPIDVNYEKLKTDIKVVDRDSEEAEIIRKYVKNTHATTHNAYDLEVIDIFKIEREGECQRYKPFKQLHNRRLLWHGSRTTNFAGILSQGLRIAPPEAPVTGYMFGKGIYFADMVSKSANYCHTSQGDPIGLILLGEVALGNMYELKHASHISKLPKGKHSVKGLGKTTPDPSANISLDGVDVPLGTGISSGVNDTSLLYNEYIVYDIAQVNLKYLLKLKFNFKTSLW

Broadly, the pIC50 is the IC50 on a negative log10 scale, so that one unit is a factor of ten. Take `C[C@@H]1CN(C(=O)[C@H]2C[C@@H](Cc3c[nH]c(=O)c(C(F)(F)F)c3)C2)C[C@H](C)N1c1ncc(C(C)(C)O)cn1` [Example 22, 5-{[(1s,3s)-3-{(3R,5S)-4-[5-(2-hydroxypropan-2-yl)pyrimidin-2-yl]-3,5-dimethylpiperazine-1-carbonyl}cyclobutyl]methyl}-3-(trifluoromethyl)pyridin-2(1H)-one]: the pIC50 at TIPARP GST-(TEV) was 8.55; at PARP1 GST, 5.56. Moreover, the “PARP1/TIPARP IC50 Ratio” value on TIPARP GST-(TEV) is 975. The pEC50 in the experiment on DLD-1 parent cells (Homo sapiens, 144 h) is < 4.52; with NCI-H1373 cells (Homo sapiens, NCI-H1373, 144 h), 7.57; in the experiment with DLD-1 BRCA2 (−/−) cells (Homo sapiens, 144 h), 5.04.
With `O=c1[nH]cc([C@H]2C[C@@H](C(=O)N3CCN(c4ncc(C(F)(F)F)cn4)CC3)C2)cc1C(F)(F)F` [Example 23, 3-(trifluoromethyl)-5-[(1s,3s)-3-{4-[5-(trifluoromethyl)pyrimidin-2-yl]piperazine-1-carbonyl}cyclobutyl]pyridin-2(1H)-one], the negative logarithm of the IC50 (pIC50) at TIPARP GST-(TEV) is 8.56; at PARP1 GST, 6.87. For the same compound, the “PARP1/TIPARP IC50 Ratio” value at TIPARP GST-(TEV) worked out at 49.6. For the same compound, the pEC50 in the experiment with DLD-1 parent cells is 4.88; in the experiment with NCI-H1373 cells it was 7.35; in the experiment with DLD-1 BRCA2 (−/−) cells, 6.11.
As for `C[C@@H]1CN(C(=O)[C@H]2C[C@H](c3c[nH]c(=O)c(C(F)(F)F)c3)C2)C[C@H](C)N1c1ncc(C(F)(F)F)cn1` [Example 24, 5-[(1r,3r)-3-{(3R,5S)-3,5-dimethyl-4-[5-(trifluoromethyl)pyrimidin-2-yl]piperazine-1-carbonyl}cyclobutyl]-3-(trifluoromethyl)pyridin-2(1H)-one], the pIC50 at TIPARP GST-(TEV) was 5.73; at PARP1 GST, 5.51. The “PARP1/TIPARP IC50 Ratio” value at TIPARP GST-(TEV) is 1.65. The results for the pEC50 in the experiment with DLD-1 parent cells, in the experiment with NCI-H1373 cells and with DLD-1 BRCA2 (−/−) cells were < 4.52, 5.19 and 4.63, respectively.
Take `C[C@@H]1CN(c2ncc(C(F)(F)F)cn2)CCN1C(=O)[C@H]1C[C@H](c2c[nH]c(=O)c(C(F)(F)F)c2)C1` [Example 25, 5-[(1R,3r)-3-{(2R)-2-methyl-4-[5-(trifluoromethyl)pyrimidin-2-yl]piperazine-1-carbonyl}cyclobutyl]-3-(trifluoromethyl)pyridin-2(1H)-one]: the pIC50 is 5.70 at TIPARP GST-(TEV) and 5.69 at PARP1 GST. Further, the “PARP1/TIPARP IC50 Ratio” value on TIPARP GST-(TEV) is listed as 1.02. Also, the pEC50 with DLD-1 parent cells was < 4.52; in the experiment on NCI-H1373 cells, 4.99; in the experiment with DLD-1 BRCA2 (−/−) cells, < 4.52.
As for `O=c1[nH]cc([C@H]2C[C@H](C(=O)N3CCN(c4ncc(C(F)(F)F)cn4)CC3)C2)cc1C(F)(F)F` [Example 26, 3-(trifluoromethyl)-5-[(1r,3r)-3-{4-[5-(trifluoromethyl)pyrimidin-2-yl]piperazine-1-carbonyl}cyclobutyl]pyridin-2(1H)-one], the values for the pIC50 on TIPARP GST-(TEV) and on PARP1 GST were 5.79 and 5.89, respectively. Besides, on TIPARP GST-(TEV), the “PARP1/TIPARP IC50 Ratio” value is 0.790. Besides, the pEC50 in the experiment with DLD-1 parent cells was < 4.52; in the experiment on NCI-H1373 cells it was 5.04; in the experiment on DLD-1 BRCA2 (−/−) cells, < 4.52.
Regarding `CC(C)(O)c1cnc(N2CCN(C(=O)[C@H]3C[C@@H](Cc4c[nH]c(=O)c(C(F)(F)F)c4)C3)CC2)nc1` [Example 27, 5-{[(1s,3s)-3-{4-[5-(2-hydroxypropan-2-yl)pyrimidin-2-yl]piperazine-1-carbonyl}cyclobutyl]methyl}-3-(trifluoromethyl)pyridin-2(1H)-one], the negative logarithm of the IC50 (pIC50) was 8.63 at TIPARP GST-(TEV) and 6.64 on PARP1 GST. The “PARP1/TIPARP IC50 Ratio” value on TIPARP GST-(TEV) is 98.7. Besides, the pEC50 with DLD-1 parent cells is < 4.52; with NCI-H1373 cells, 7.41; in the experiment with DLD-1 BRCA2 (−/−) cells, 6.05.
As for `CC(C)(O)c1cnc(N2CCN(C(=O)[C@H]3C[C@@H](c4c[nH]c(=O)c(C(F)(F)F)c4)C3)CC2)nc1` [Example 28, 5-[(1s,3s)-3-{4-[5-(2-hydroxypropan-2-yl)pyrimidin-2-yl]piperazine-1-carbonyl}cyclobutyl]-3-(trifluoromethyl)pyridin-2(1H)-one], the results for the pIC50 on TIPARP GST-(TEV) and on PARP1 GST were 8.24 and 6.29, respectively. Also, the “PARP1/TIPARP IC50 Ratio” value on TIPARP GST-(TEV) stood at 89.1. Also, the pEC50 with DLD-1 parent cells was < 4.52; with NCI-H1373 cells, 6.76; in the experiment on DLD-1 BRCA2 (−/−) cells it was 5.26.
Consider `O=c1[nH]cc(C[C@H]2C[C@@H](C(=O)N3CCN(c4ncc(C(F)(F)F)cn4)CC3)C2)cc1C(F)(F)F` [Example 29, 3-(trifluoromethyl)-5-{[(1s,3s)-3-{4-[5-(trifluoromethyl)pyrimidin-2-yl]piperazine-1-carbonyl}cyclobutyl]methyl}pyridin-2(1H)-one], for which the negative-log IC50 (pIC50) is 8.76 on TIPARP GST-(TEV) and 6.58 at PARP1 GST. Further, the “PARP1/TIPARP IC50 Ratio” value at TIPARP GST-(TEV) is reported as 150. The pEC50 with DLD-1 parent cells is 5.22; in the experiment on NCI-H1373 cells, 7.74; in the experiment on DLD-1 BRCA2 (−/−) cells, 6.64.
